What was measured:
[1] = system: cocklebur; assay: Test B preemergence/postemergence greenhouse plant response rating 0 to 10; format: in vivo, Xanthium pensylvanicum; conditions: for Plant response rating, Cocklebur: 0 to 10 scale
Summary of the method: (§1)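 Postemergence treatment of plants two to eighteen cm tall ran alongside preemergence treatment of planted seed, each using compound in a non-phytotoxic solvent.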

[2] = system: rice; assay: as above; format: in vivo, Oryza sativa; conditions: 0 to 10 scale
Summary of the method: as §1

[3] = system: soybean; assay: as above; format: in vivo, Glycine max; conditions: 0 to 10 scale
Summary of the method: as §1

[4] = system: wild buckwheat; assay: as above; format: in vivo, Polygonum convolvulus; conditions: 0 to 10 scale
Summary of the method: as §1

[5] = system: purple nutsedge; assay: as above; format: in vivo, Cyperus rotundus; conditions: 0 to 10 scale
Summary of the method: as §1

[6] = system: bedstraw; assay: Test C preemergence/postemergence greenhouse plant response rating 0 to 100; format: in vivo, Galium aparine; conditions: POSTEMERGENCE
Summary of the method: (§2)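 Compounds in non-phytotoxic solvent applied preemergence to sandy loam one day after planting, postemergence at the 1–4 leaf stage, or to ~2.5 cm floodwater over silt loam.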

[7] = system: blackgrass; assay: as above; format: in vivo, Alopecurus myosuroides; conditions: POSTEMERGENCE
Summary of the method: as §2

[8] = system: chickweed; assay: as above; format: in vivo, Stellaria media; conditions: POSTEMERGENCE
Summary of the method: as §2

[9] = system: corn; assay: as above; format: in vivo, Zea mays; conditions: POSTEMERGENCE
Summary of the method: as §2

[10] = system: cotton; assay: as above; format: in vivo, Gossypium hirsutum; conditions: POSTEMERGENCE
Summary of the method: as §2

[11] = system: giant foxtail; assay: as above; format: in vivo, Setaria faberii; conditions: POSTEMERGENCE
Summary of the method: as §2

[12] = system: pigweed; assay: as above; format: in vivo, Amaranthusretroflexus; conditions: POSTEMERGENCE
Summary of the method: as §2

[13] = system: sugar beet; assay: as above; format: in vivo, Beta vulgaris; conditions: POSTEMERGENCE
Summary of the method: as §2

[14] = system: velvetleaf; assay: as above; format: in vivo, Abutilon theophrasti; conditions: POSTEMERGENCE
Summary of the method: as §2

[15] = system: rice; assay: Test C flood test plant response rating 0 to 100; format: in vivo, Oryza sativa
Source text: (§3) The compounds evaluated in this test were formulated in a non-phytoxic solvent and applied to the soil surface before plant seedlings emerged (preemergence application), to water that covered the soil surface (flood application), and to plants that were in the one-to-four leaf stage (postemergence application). A sandy loam soil was used for the preemergence and postemergence tests, while a silt loam soil was used in the flood test. Water depth was approximately 2.5 cm for the flood test and was maintained at this level for the duration of the test. Plant species in the preemergence and postemergence tests consisted of barley (Hordeum vulgare), bedstraw (Galium aparine), blackgrass (Alopecurus myosuroides), chickweed (Stellaria media), corn (Zea mays), cotton (Gossypium hirsutum), crabgrass (Digitaria sanguinalis), downy brome (Bromus tectorum), giant foxtail (Setaria faberii), lambsquarters (Chenopodium album), morningglory (Ipomoea hederacea), pigweed ([…]), rape (Brassica napus), ryegrass (Lolium multiflorum), sorghum (Sorghum bicolor), soybean (Glycine max), speedwell (Veronica persica), sugar beet (Beta vulgaris), velvetleaf (Abutilon theophrasti), wheat (Triticum aestivum), wild buckwheat (Polygonum convolvulus), and wild oat (Avena fatua). All plant species were planted one day before application of the compound for the preemergence portion-of this test. Plantings of these species were adjusted to produce plants of appropriate size for the post-emergence portion of the test. […] All plant species were grown using normal greenhouse practices. Visual evaluations of injury expressed on treated plants, when compared to untreated controls, were recorded approximately fourteen to twenty one days after application of the test compound. […] A dash (-) response means no test result.

[16] = system: umbrella sedge; assay: Test C flood test plant response rating 0 to 100; format: in vivo, Cyperus difformis
Source text: as §3

[17] = system: duck salad; assay: Test C flood test plant response rating 0 to 100; format: in vivo, Heteranthera limosa
Source text: as §3

[18] = POSTEMERGENCE section, flood test, Rate 1 g/ha
[19] = POSTEMERGENCE section, flood test, Rate 4 g/ha
[20] = Rate 16 g/ha, under POSTEMERGENCE head (flood test species)
[21] = flood test species listed under POSTEMERGENCE, 62 g/ha, 0 to 100 scale

CC(C)N1C(=O)COc2cc(F)c(-c3nn4c(c3Cl)CCCC4)cc21 [Compound 31]
Plant response rating, Cocklebur ([1]; POSTEMERGENCE, Rate 10 g/ha): 9 | Plant response rating (0 to 10 scale), Cocklebur ([1]; POSTEMERGENCE, Rate 50 g/ha): 9 | Plant response rating, Cocklebur ([1]; PREEMERGENCE, Rate 10 g/ha): 0 | Plant response rating, Cocklebur ([1]; PREEMERGENCE, Rate 50 g/ha): 3 | Plant response rating, Rice ([2]; POSTEMERGENCE, Rate 10 g/ha): 4 | Plant response rating, Rice ([2]; POSTEMERGENCE, Rate 50 g/ha): 7 | Plant response rating, Rice ([2]; PREEMERGENCE, Rate 50 g/ha): 0 | Plant response rating, Soybean ([3]; POSTEMERGENCE, Rate 10 g/ha): 7 | Plant response rating, Soybean ([3]; POSTEMERGENCE, Rate 50 g/ha): 7 | Plant response rating, Soybean ([3]; PREEMERGENCE, Rate 50 g/ha): 0 | Plant response rating, Wild buckwheat ([4]; POSTEMERGENCE, Rate 10 g/ha): 10 | Plant response rating, Wild buckwheat ([4]; POSTEMERGENCE, Rate 50 g/ha): 10 | Plant response rating, Wild buckwheat ([4]; PREEMERGENCE, Rate 50 g/ha): 10 | Plant response rating, Nutsedge ([5]; POSTEMERGENCE, Rate 10 g/ha): 2 | Plant response rating, Nutsedge ([5]; POSTEMERGENCE, Rate 50 g/ha): 5 | Plant response rating, Nutsedge ([5]; PREEMERGENCE, Rate 50 g/ha): 0 | Plant response rating, Bedstraw ([6]; 62 g/ha, 0 to 100 scale): 100 | Plant response rating (0 to 100), Bedstraw ([6]; Rate 1 g/ha): 75 | Plant response rating (0 to 100), Bedstraw ([6]; Rate 4 g/ha): 85 | Plant response rating (0 to 100), Bedstraw ([6]; Rate 16 g/ha): 100 | Plant response rating, Blackgrass ([7]; 62 g/ha, 0 to 100 scale): 40 | Plant response rating (0 to 100), Blackgrass ([7]; Rate 1 g/ha): 10 | Plant response rating (0 to 100), Blackgrass ([7]; Rate 4 g/ha): 20 | Plant response rating (0 to 100), Blackgrass ([7]; Rate 16 g/ha): 30 | Plant response rating, Chickweed ([8]; 62 g/ha, 0 to 100 scale): 90 | Plant response rating (0 to 100), Chickweed ([8]; Rate 4 g/ha): 20 | Plant response rating (0 to 100), Chickweed ([8]; Rate 16 g/ha): 80 | Plant response rating, Corn ([9]; 62 g/ha, 0 to 100 scale): 50 | Plant response rating (0 to 100), Corn ([9]; Rate 1 g/ha): 20 | Plant response rating (0 to 100), Corn ([9]; Rate 4 g/ha): 30 | Plant response rating (0 to 100), Corn ([9]; Rate 16 g/ha): 40 | Plant response rating, Cotton ([10]; 62 g/ha, 0 to 100 scale): 100 | Plant response rating (0 to 100), Cotton ([10]; Rate 1 g/ha): 90 | Plant response rating (0 to 100), Cotton ([10]; Rate 4 g/ha): 100 | Plant response rating (0 to 100), Cotton ([10]; Rate 16 g/ha): 100 | Plant response rating, Giant foxtail ([11]; 62 g/ha, 0 to 100 scale): 40 | Plant response rating (0 to 100), Giant foxtail ([11]; Rate 1 g/ha): 10 | Plant response rating (0 to 100), Giant foxtail ([11]; Rate 4 g/ha): 20 | Plant response rating (0 to 100), Giant foxtail ([11]; Rate 16 g/ha): 30 | Plant response rating Pigweed ([12]; 62 g/ha, 0 to 100 scale): 100 | Plant response rating (0 to 100), Pigweed ([12]; Rate 1 g/ha): 95 | Plant response rating (0 to 100), Pigweed ([12]; Rate 4 g/ha): 100 | Plant response rating (0 to 100), Pigweed ([12]; Rate 16 g/ha): 100 | Plant response rating, Sugar beet ([13]; 62 g/ha, 0 to 100 scale): 100 | Plant response rating (0 to 100), Sugar beet ([13]; Rate 1 g/ha): 60 | Plant response rating (0 to 100), Sugar beet ([13]; Rate 4 g/ha): 100 | Plant response rating (0 to 100), Sugar beet ([13]; Rate 16 g/ha): 100 | Plant response rating, Velvetleaf ([14]; 62 g/ha, 0 to 100 scale): 100 | Plant response rating (0 to 100), Velvetleaf ([14]; Rate 1 g/ha): 85 | Plant response rating (0 to 100), Velvetleaf ([14]; Rate 4 g/ha): 95 | Plant response rating (0 to 100), Velvetleaf ([14]; Rate 16 g/ha): 100 | Plant response rating (0 to 100), Rice Japonica [15, 18]: 0 | Plant response rating (0 to 100), Rice Japonica [15, 19]: 0 | Plant response rating (0 to 100), Rice Japonica [15, 20]: 35 | Plant response rating Rice Japonica [15, 21]: 50 | Plant response rating (0 to 100), Umbrella sedge [16, 18]: 0 | Plant response rating (0 to 100), Umbrella sedge [16, 19]: 0 | Plant response rating (0 to 100), Umbrella sedge [16, 20]: 0 | Plant response rating Umbrella sedge [16, 21]: 80 | Plant response rating (0 to 100), Duck salad [17, 18]: 0 | Plant response rating (0 to 100), Duck salad [17, 19]: 0 | Plant response rating (0 to 100), Duck salad [17, 20]: 40 | Plant response rating Duck salad [17, 21]: 40

From patent US6358885B1, “Substituted phenylheterocyclic herbicides” (Mississippi State University, priority 1992, dated 2002)
